Measured values from ChEMBL document CHEMBL1201861, “Genomics of Drug Sensitity in Cancer screening data, Wellcome Trust Sanger Institute”.

How the values were obtained:
Experiment in all cases: cells
COR-L105 = type: functional, cell-based, Homo sapiens; conditions: Homo sapiens, COR-L105;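 further: cell growth inhibition determined with a viability assay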
Description: SANGER: Inhibition of human COR-L105 cell growth in a cell viability assay.

CTV-1 = type: functional, cell-based; conditions: Homo sapiens;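 further: growth inhibition of the cell line, read out with a cell viability assay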
Description: SANGER: Inhibition of human CTV-1 cell growth in a cell viability assay.

DMS-273 = type: functional, cell-based, Homo sapiens; conditions: Homo sapiens, DMS-273
Description: SANGER: Inhibition of human DMS-273 cell growth in a cell viability assay.

ES8 = type: functional, cell-based, Homo sapiens; conditions: Homo sapiens, ES8;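 further: growth inhibition of human ES8 cells, read out with a cell viability assay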
Description: SANGER: Inhibition of human ES8 cell growth in a cell viability assay.

EW-13 = type: functional, cell-based; conditions: Homo sapiens;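 further: growth inhibition of EW-13 cells, read out with a cell viability assay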
Description: SANGER: Inhibition of human EW-13 cell growth in a cell viability assay.

HC-1 = type: functional, cell-based; conditions: Homo sapiens;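 further: growth inhibition of HC-1 cells measured by a cell viability assay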
Description: SANGER: Inhibition of human HC-1 cell growth in a cell viability assay.

HCC38 = type: functional, cell-based, Homo sapiens; conditions: Homo sapiens, HCC38;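 further: cell viability assay on the human HCC38 cell line, with IC50 marking the concentration that inhibits cell growth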
Description: SANGER: Inhibition of human HCC38 cell growth in a cell viability assay.

HCC70 = type: functional, cell-based, Homo sapiens; conditions: Homo sapiens, HCC70;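 further: cell viability assay measuring how strongly the compound suppresses proliferation of HCC70 cells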
Description: SANGER: Inhibition of human HCC70 cell growth in a cell viability assay.

HH = type: functional, cell-based; conditions: Homo sapiens
Description: SANGER: Inhibition of human HH cell growth in a cell viability assay.

HO-1-N-1 = type: functional, cell-based, Homo sapiens; conditions: Homo sapiens, HO-1-N-1;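 further: growth inhibition of human HO-1-N-1 cells, read out with a cell viability assay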
Description: SANGER: Inhibition of human HO-1-N-1 cell growth in a cell viability assay.

HuP-T3 = type: functional, cell-based, Homo sapiens; conditions: Homo sapiens, HuP-T3;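 further: HuP-T3 cell growth inhibition, read out with a cell viability assay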
Description: SANGER: Inhibition of human HuP-T3 cell growth in a cell viability assay.

IGROV-1 = type: functional, cell-based, Homo sapiens; conditions: Homo sapiens, IGROV-1;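 further: reduction of IGROV-1 cell growth, read out with a viability assay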
Description: SANGER: Inhibition of human IGROV-1 cell growth in a cell viability assay.

IST-SL1 = type: functional, cell-based, Homo sapiens; conditions: Homo sapiens, IST-SL1;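 further: growth inhibition of human IST-SL1 cells, read out with a cell viability assay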
Description: SANGER: Inhibition of human IST-SL1 cell growth in a cell viability assay.

KARPAS-45 = type: functional, cell-based; conditions: Homo sapiens;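 further: inhibition of cell line growth, read out through a viability assay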
Description: SANGER: Inhibition of human KARPAS-45 cell growth in a cell viability assay.

KE-37 = type: functional, cell-based; conditions: Homo sapiens;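 further: growth inhibition of KE-37 cells, read out with a cell viability assay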
Description: SANGER: Inhibition of human KE-37 cell growth in a cell viability assay.

KGN = type: functional, cell-based, Homo sapiens; conditions: Homo sapiens, KGN;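 further: growth inhibition of KGN cells, read out with a cell viability assay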
Description: SANGER: Inhibition of human KGN cell growth in a cell viability assay.

KOSC-2 = type: functional, cell-based, Homo sapiens; conditions: Homo sapiens, KOSC-2;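 further: growth inhibition of KOSC-2 cells, read out by a cell viability assay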
Description: SANGER: Inhibition of human KOSC-2 cell growth in a cell viability assay.

KP-N-YS = type: functional, cell-based; conditions: Homo sapiens;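 further: cell viability assay measuring inhibition of cell line growth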
Description: SANGER: Inhibition of human KP-N-YS cell growth in a cell viability assay.

KS-1 = type: functional, cell-based, Homo sapiens; conditions: Homo sapiens, KS-1;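 further: growth inhibition of KS-1 cells, read out with a cell viability assay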
Description: SANGER: Inhibition of human KS-1 cell growth in a cell viability assay.

KU812 cell line = type: functional, cell-based; conditions: Homo sapiens;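 further: growth inhibition of KU812 cells, read out with a cell viability assay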
Description: SANGER: Inhibition of human KU812 cell growth in a cell viability assay.

LB1047-RCC = type: functional, cell-based, Homo sapiens; conditions: Homo sapiens, LB1047-RCC;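 further: inhibition of cell growth, determined with a cell viability assay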
Description: SANGER: Inhibition of human LB1047-RCC cell growth in a cell viability assay.

LB2518-MEL = type: functional, cell-based, Homo sapiens; conditions: Homo sapiens, LB2518-MEL;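 further: growth inhibition of human LB2518-MEL cells, measured with a cell viability assay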
Description: SANGER: Inhibition of human LB2518-MEL cell growth in a cell viability assay.

MC116 = type: functional, cell-based; conditions: Homo sapiens;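 further: growth inhibition of MC116 cells, read out with a cell viability assay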
Description: SANGER: Inhibition of human MC116 cell growth in a cell viability assay.

MFE-280 = type: functional, cell-based, Homo sapiens; conditions: Homo sapiens, MFE-280;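 further: growth inhibition of MFE-280 cells, determined with a cell viability readout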
Description: SANGER: Inhibition of human MFE-280 cell growth in a cell viability assay.

ML-2 = type: functional, cell-based; conditions: Homo sapiens;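 further: growth inhibition of ML-2 cells, measured with a cell viability readout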
Description: SANGER: Inhibition of human ML-2 cell growth in a cell viability assay.

MLMA = type: functional, cell-based, Homo sapiens; conditions: Homo sapiens, MLMA;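 further: growth inhibition of MLMA cells (human), determined through a cell viability readout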
Description: SANGER: Inhibition of human MLMA cell growth in a cell viability assay.

MOLT-16 = type: functional, cell-based; conditions: Homo sapiens;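 further: growth inhibition of human MOLT-16 cells, read out with a cell viability assay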
Description: SANGER: Inhibition of human MOLT-16 cell growth in a cell viability assay.

MPP-89 = type: functional, cell-based, Homo sapiens; conditions: Homo sapiens, MPP-89;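 further: growth inhibition of human MPP-89 cells, read out with a cell viability assay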
Description: SANGER: Inhibition of human MPP-89 cell growth in a cell viability assay.

MZ1-PC = type: functional, cell-based, Homo sapiens; conditions: Homo sapiens, MZ1-PC;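 further: cell viability assay measuring growth inhibition of human MZ1-PC cells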
Description: SANGER: Inhibition of human MZ1-PC cell growth in a cell viability assay.

MeWo = type: functional, cell-based, Homo sapiens; conditions: Homo sapiens, MeWo;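 further: growth inhibition of MeWo cells, determined by a cell viability readout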
Description: SANGER: Inhibition of human Mewo cell growth in a cell viability assay.

NCI-H226 = type: functional, cell-based, Homo sapiens; conditions: Homo sapiens, NCI-H226;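 further: cell viability read-out used to gauge growth inhibition of the cells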
Description: SANGER: Inhibition of human NCI-H226 cell growth in a cell viability assay.

NCI-H292 = type: functional, cell-based, Homo sapiens; conditions: Homo sapiens, NCI-H292;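 further: growth inhibition of NCI-H292 cells, read out with a cell viability assay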
Description: SANGER: Inhibition of human NCI-H292 cell growth in a cell viability assay.

NCI-H510A = type: functional, cell-based; conditions: Homo sapiens;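 further: growth inhibition of NCI-H510A cells, read out with a cell viability assay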
Description: SANGER: Inhibition of human NCI-H510A cell growth in a cell viability assay.

NOMO-1 = type: functional, cell-based; conditions: Homo sapiens;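 further: growth inhibition of human NOMO-1 cells measured by a cell viability assay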
Description: SANGER: Inhibition of human NOMO-1 cell growth in a cell viability assay.

NOS-1 = type: functional, cell-based, Homo sapiens; conditions: Homo sapiens, NOS-1;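 further: growth inhibition of the human NOS-1 cell line, read out with a cell viability assay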
Description: SANGER: Inhibition of human NOS-1 cell growth in a cell viability assay.

OCUB-M = type: functional, cell-based, Homo sapiens; conditions: Homo sapiens, OCUB-M;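 further: growth inhibition of the cancer cell line, read out through a cell viability assay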
Description: SANGER: Inhibition of human OCUB-M cell growth in a cell viability assay.

OS-RC-2 = type: functional, cell-based, Homo sapiens; conditions: Homo sapiens, OS-RC-2;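 further: growth inhibition of human OS-RC-2 cells, measured by a cell viability assay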
Description: SANGER: Inhibition of human OS-RC-2 cell growth in a cell viability assay.

OVCAR-4 = type: functional, cell-based, Homo sapiens; conditions: Homo sapiens, OVCAR-4;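 further: growth inhibition of human OVCAR-4 cells, measured with a cell viability assay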
Description: SANGER: Inhibition of human OVCAR-4 cell growth in a cell viability assay.

RXF 393 = type: functional, cell-based; conditions: Homo sapiens;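 further: growth inhibition of human RXF 393 cells, read out with a cell viability assay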
Description: SANGER: Inhibition of human RXF393 cell growth in a cell viability assay.

SF-295 = type: functional, cell-based, Homo sapiens; conditions: Homo sapiens, SF-295; read-out: IC50;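 further: growth inhibition of SF-295 cells, read out with a cell viability assay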
Description: SANGER: Inhibition of human SF295 cell growth in a cell viability assay.

SH-4 = type: functional, cell-based, Homo sapiens; conditions: Homo sapiens, SH-4;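 further: growth inhibition of SH-4 cells, read out with a cell viability assay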
Description: SANGER: Inhibition of human SH-4 cell growth in a cell viability assay.

SKG-IIIa = type: functional, cell-based, Homo sapiens; conditions: Homo sapiens, SKG-IIIa;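 further: cell growth inhibition, read out with a cell viability assay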
Description: SANGER: Inhibition of human SKG-IIIa cell growth in a cell viability assay.

SNU-449 = type: functional, cell-based, Homo sapiens; conditions: Homo sapiens, SNU-449
Description: SANGER: Inhibition of human SNU-449 cell growth in a cell viability assay.

SiHa = type: functional, cell-based, Homo sapiens; conditions: Homo sapiens, SiHa;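 further: Viability-based readout of growth inhibition in SiHa cells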
Description: SANGER: Inhibition of human SiHa cell growth in a cell viability assay.

TCC-SUP = type: functional, cell-based, Homo sapiens; conditions: Homo sapiens, TCC-SUP;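 further: growth inhibition of TCC-SUP cells, read out with a cell viability assay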
Description: SANGER: Inhibition of human TCCSUP cell growth in a cell viability assay.

CWR22R = type: functional, cell-based, Homo sapiens; conditions: Homo sapiens, 22Rv1;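 further: growth inhibition of 22Rv1 cells, read out with a cell viability assay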
Description: SANGER: Inhibition of human 22RV1 cell growth in a cell viability assay.

5637 = type: functional, cell-based, Homo sapiens; conditions: Homo sapiens
Description: SANGER: Inhibition of human 5637 cell growth in a cell viability assay.

8-MG-BA = type: functional, cell-based, Homo sapiens; conditions: Homo sapiens, 8-MG-BA;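 further: growth inhibition of 8-MG-BA cells, read out with a cell viability assay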
Description: SANGER: Inhibition of human 8-MG-BA cell growth in a cell viability assay.

U-118-MG = type: functional, cell-based, Homo sapiens; conditions: Homo sapiens, U-118-MG
Description: SANGER: Inhibition of human U-118-MG cell growth in a cell viability assay.

UO-31 = type: functional, cell-based; conditions: Homo sapiens;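 further: cell viability assay measuring inhibition of cell growth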
Description: SANGER: Inhibition of human U031 cell growth in a cell viability assay.

VA-ES-BJ = type: functional, cell-based, Homo sapiens; conditions: Homo sapiens, VA-ES-BJ;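 further: growth inhibition of the VA-ES-BJ cell line, read out by a cell viability assay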
Description: SANGER: Inhibition of human VA-ES-BJ cell growth in a cell viability assay.

WM-115 = type: functional, cell-based, Homo sapiens; conditions: Homo sapiens, WM-115
Description: SANGER: Inhibition of human WM-115 cell growth in a cell viability assay.

CHP-212 = type: functional, cell-based, Homo sapiens; conditions: Homo sapiens, CHP-212
Description: SANGER: Inhibition of human CHP-212 cell growth in a cell viability assay.

What does the source list for Cc1cnc(-c2cnc(NCCNc3ccc(C#N)cn3)nc2-c2ccc(Cl)cc2Cl)[nH]1 [LADUVIGLUSIB]?
IC50 (COR-L105): > 2560 nM; IC50 (CTV-1): > 2560 nM; IC50 (DMS-273): > 2560 nM; IC50 (ES8): > 2560 nM; IC50 (EW-13): > 2560 nM; IC50 (HC-1): > 2560 nM; IC50 (HCC38): > 2560 nM; IC50 (HCC70): > 2560 nM; IC50 (HH): > 2560 nM; IC50 (HO-1-N-1): > 2560 nM; IC50 (HuP-T3): > 2560 nM; IC50 (IGROV-1): > 2560 nM; IC50 (IST-SL1): > 2560 nM; IC50 (KARPAS-45): > 2560 nM; IC50 (KE-37): > 2560 nM; IC50 (KGN): > 2560 nM; IC50 (KOSC-2): > 2560 nM; IC50 (KP-N-YS): > 2560 nM; IC50 (KS-1): > 2560 nM; IC50 (KU812 cell line): > 2560 nM; IC50 (LB1047-RCC): > 2560 nM; IC50 (LB2518-MEL): > 2560 nM; IC50 (MC116): > 2560 nM; IC50 (MFE-280): > 2560 nM; IC50 (ML-2): > 2560 nM; IC50 (MLMA): > 2560 nM; IC50 (MOLT-16): > 2560 nM; IC50 (MPP-89): > 2560 nM; IC50 (MZ1-PC): > 2560 nM; IC50 (MeWo): > 2560 nM; IC50 (NCI-H226): > 2560 nM; IC50 (NCI-H292): > 2560 nM; IC50 (NCI-H510A): > 2560 nM; IC50 (NOMO-1): > 2560 nM; IC50 (NOS-1): > 2560 nM; IC50 (OCUB-M): > 2560 nM; IC50 (OS-RC-2): > 2560 nM; IC50 (OVCAR-4): > 2560 nM; IC50 (RXF 393): > 2560 nM; IC50 (SF-295): > 2560 nM; IC50 (SH-4): > 2560 nM; IC50 (SKG-IIIa): > 2560 nM; IC50 (SNU-449): > 2560 nM; IC50 (SiHa): > 2560 nM; IC50 (TCC-SUP): > 2560 nM; IC50 (CWR22R): > 2560 nM; IC50 5637: > 2560 nM; IC50 (8-MG-BA): > 2560 nM; IC50 (U-118-MG): > 2560 nM; IC50 (UO-31): > 2560 nM; IC50 (VA-ES-BJ): > 2560 nM; IC50 (WM-115): > 2560 nM; IC50 (CHP-212): > 2560 nM

Which results are given for C[C@]1(O)C[C@@H](c2nc(-c3ccc4ccc(-c5ccccc5)nc4c3)c3c(N)nccn32)C1 [LINSITINIB]?
IC50 (COR-L105): > 2560 nM; IC50 (CTV-1): > 2560 nM; IC50 (DMS-273): > 2560 nM; IC50 (ES8): > 2560 nM; IC50 (EW-13): > 2560 nM; IC50 (HC-1): > 2560 nM; IC50 (HCC38): > 2560 nM; IC50 (HCC70): > 2560 nM; IC50 (HH): > 2560 nM; IC50 (HO-1-N-1): > 2560 nM; IC50 (HuP-T3): > 2560 nM; IC50 (IGROV-1): 1150 nM; IC50 (IST-SL1): > 2560 nM; IC50 (KARPAS-45): > 2560 nM; IC50 (KE-37): > 2560 nM; IC50 (KGN): > 2560 nM; IC50 (KOSC-2): > 2560 nM; IC50 (KP-N-YS): > 2560 nM; IC50 (KS-1): 38.4 nM; IC50 (KU812 cell line): > 2560 nM; IC50 (LB1047-RCC): > 2560 nM; IC50 (LB2518-MEL): > 2560 nM; IC50 (MC116): > 2560 nM; IC50 (MFE-280): > 2560 nM; IC50 (ML-2): 159 nM; IC50 (MLMA): > 2560 nM; IC50 (MOLT-16): > 2560 nM; IC50 (MPP-89): > 2560 nM; IC50 (MZ1-PC): > 2560 nM; IC50 (MeWo): > 2560 nM; IC50 (NCI-H226): > 2560 nM; IC50 (NCI-H292): > 2560 nM; IC50 (NCI-H510A): > 2560 nM; IC50 (NOMO-1): > 2560 nM; IC50 (NOS-1): 523 nM; IC50 (OCUB-M): > 2560 nM; IC50 (OS-RC-2): > 2560 nM; IC50 (OVCAR-4): > 2560 nM; IC50 (RXF 393): > 2560 nM; IC50 (SF-295): > 2560 nM; IC50 (SH-4): > 2560 nM; IC50 (SKG-IIIa): > 2560 nM; IC50 (SNU-449): > 2560 nM; IC50 (SiHa): > 2560 nM; IC50 (TCC-SUP): > 2560 nM; IC50 (CWR22R): > 2560 nM; IC50 5637: > 2560 nM; IC50 (8-MG-BA): > 2560 nM; IC50 (U-118-MG): > 2560 nM; IC50 (UO-31): > 2560 nM; IC50 (VA-ES-BJ): > 2560 nM; IC50 (WM-115): > 2560 nM; IC50 (CHP-212): > 2560 nM
